Among the test systems are CCRF-CEM leukemia; SNB-78 CNS; M19-MEL melanoma; DMS 114 small cell lung; HL-60(TB) leukemia; NCI-H460 lung; RPMI-8226 leukemia; HOP-18 NSCLC; UACC-62 melanoma; DLD-1 colon; DU-145 prostate; MDA-MB-231 breast; MDA-MB-435; NCI/ADR-RES ovarian.
Assay in all cases: NCI-60 cell line screen, 48 h

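Following 48 hours of exposure in 96-well plates, responses at five concentrations were used to interpolate endpoints linearly. At the TGI there is no net growth.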

As for `CCCn1c(SCC)c2ccccc2c1-c1nc(F)nc(F)n1`, the TGI in the experiment on CCRF-CEM leukemia, in the experiment on SNB-78 CNS, with M19-MEL melanoma, in the experiment with DMS 114 small cell lung, in the experiment with HL-60(TB) leukemia and with NCI-H460 lung was more than 100 µM in each case. For the same molecule, the TGI in the experiment on RPMI-8226 leukemia was more than 100 µM.
Turning to `CCCC/C=C/C1Cc2ccccc2CN1S(=O)(=O)c1ccc(C)cc1` (stereo not drawn), the TGI in the experiment with CCRF-CEM leukemia is 42.3 µM; with M19-MEL melanoma it was 18.8 µM; in the experiment on HOP-18 NSCLC, more than 100 µM; in the experiment on DMS 114 small cell lung, 12.2 µM; with UACC-62 melanoma, 27.5 µM; in the experiment with HL-60(TB) leukemia it was more than 100 µM. The TGI in the experiment with NCI-H460 lung amounted to 31.3 µM; in the experiment on DLD-1 colon, 32.9 µM; in the experiment with RPMI-8226 leukemia, 5.72 µM.
`CC(C)(C)NN=C1C(C)(C)C(=NNC(C)(C)C)C1(C)C`: the TGI in the experiment with SNB-78 CNS, in the experiment on M19-MEL melanoma, in the experiment with DMS 114 small cell lung, with UACC-62 melanoma, in the experiment with HL-60(TB) leukemia and with NCI-H460 lung was more than 100 µM in each case. The TGI with DLD-1 colon and in the experiment on RPMI-8226 leukemia was more than 100 µM throughout.
As for `COC(=O)C(CCCC1(c2ccccc2)OCCO1)C(C)=O` (stereo not drawn), the TGI in the experiment with CCRF-CEM leukemia, in the experiment on SNB-78 CNS, with M19-MEL melanoma, in the experiment on HOP-18 NSCLC, with HL-60(TB) leukemia and with NCI-H460 lung was more than 100 µM throughout. This molecule yielded a TGI in the experiment on DLD-1 colon of more than 100 µM.
As for `CCCCc1c2c(nc3c1CCCC3O)/C(=C/c1ccccc1)CCC2` (stereo not drawn), the TGI was 43.9 µM in the experiment on CCRF-CEM leukemia; more than 100 µM in the experiment with SNB-78 CNS; 57.1 µM in the experiment on M19-MEL melanoma; 89.5 µM with HOP-18 NSCLC; 53.1 µM in the experiment on DMS 114 small cell lung; 95.7 µM with UACC-62 melanoma. Also, the TGI is 43 µM in the experiment on HL-60(TB) leukemia, more than 100 µM with NCI-H460 lung and 46.2 µM in the experiment on RPMI-8226 leukemia.
As to `CC1(C)CC(=O)C2=C(C1)c1c(ccc3ccccc13)NC2c1cn(Cc2ccc(Cl)cc2)c2ccccc12` (stereo not drawn), the TGI in the experiment with CCRF-CEM leukemia, in the experiment on DU-145 prostate, with UACC-62 melanoma, in the experiment on MDA-MB-231 breast, in the experiment with HL-60(TB) leukemia and in the experiment with NCI-H460 lung was more than 100 µM in each case. For the same molecule, the TGI in the experiment with MDA-MB-435, with RPMI-8226 leukemia and in the experiment on NCI/ADR-RES ovarian was more than 100 µM throughout.
On to `CC(=O)O/N=C/c1ncccc1OC(C)=O`, for which the TGI in the experiment on CCRF-CEM leukemia, in the experiment on M19-MEL melanoma, with HOP-18 NSCLC, in the experiment on DMS 114 small cell lung, in the experiment on UACC-62 melanoma and with HL-60(TB) leukemia was more than 100 µM each time. The TGI with NCI-H460 lung and in the experiment on DLD-1 colon was more than 100 µM each time.
With `O=[N+]([O-])c1ccc(C2=NOC(c3ccccc3F)N2C23CC4CC(CC(C4)C2)C3)cc1` (stereo not drawn), the TGI in the experiment with CCRF-CEM leukemia, with DU-145 prostate, in the experiment on UACC-62 melanoma, with MDA-MB-231 breast, in the experiment on HL-60(TB) leukemia and in the experiment with NCI-H460 lung was more than 100 µM throughout. Besides, the TGI in the experiment with MDA-MB-435, with RPMI-8226 leukemia and in the experiment on NCI/ADR-RES ovarian was more than 100 µM throughout.
For `Clc1ccc(Oc2ccc(N=Cc3ccc(Cl)cc3Cl)cc2Cl)cc1`, the TGI with CCRF-CEM leukemia was 44.8 µM; in the experiment with DU-145 prostate, more than 100 µM; in the experiment with UACC-62 melanoma it was more than 100 µM; with MDA-MB-231 breast it was more than 100 µM; in the experiment on HL-60(TB) leukemia it was 57.6 µM; in the experiment with NCI-H460 lung, more than 100 µM. Besides, the TGI in the experiment with MDA-MB-435 was 49.7 µM; with RPMI-8226 leukemia it was more than 100 µM; in the experiment with NCI/ADR-RES ovarian, 84.9 µM.
Regarding `CN(NC(=O)CCCl)C1=NCCN1`, the TGI with CCRF-CEM leukemia, in the experiment on DU-145 prostate, in the experiment on UACC-62 melanoma, in the experiment on MDA-MB-231 breast, in the experiment with HL-60(TB) leukemia and in the experiment on NCI-H460 lung was more than 100 µM in each case. Moreover, the TGI in the experiment with MDA-MB-435, in the experiment with RPMI-8226 leukemia and in the experiment with NCI/ADR-RES ovarian was more than 100 µM each time.
Take `CCCN(CCCC(NC(C)=O)C(=O)NCc1ccccc1)C(=O)NC` (stereo not drawn): the TGI with CCRF-CEM leukemia, in the experiment with SNB-78 CNS, with M19-MEL melanoma, with DMS 114 small cell lung, in the experiment on UACC-62 melanoma and in the experiment on NCI-H460 lung was more than 100 µM each time. Besides, the TGI in the experiment on DLD-1 colon and in the experiment on RPMI-8226 leukemia was more than 100 µM in each case.
Consider `CCOC(=O)CCC(NC(=O)c1ccc(Oc2nc3ccc(C(F)(F)F)cc3nc2-c2ccccc2)cc1)C(=O)OCC` (stereo not drawn), for which the TGI in the experiment with CCRF-CEM leukemia is more than 100 µM; in the experiment with DU-145 prostate it was more than 100 µM; in the experiment with UACC-62 melanoma, more than 100 µM; with MDA-MB-231 breast, more than 61.1 µM; in the experiment with HL-60(TB) leukemia it was more than 100 µM; in the experiment with NCI-H460 lung, more than 100 µM. The TGI in the experiment on MDA-MB-435, in the experiment on RPMI-8226 leukemia and in the experiment on NCI/ADR-RES ovarian was more than 100 µM each time.
With `CC(C)C1(C)N=C(C(F)(F)F)c2cc(C(=O)C(F)(F)F)c3ccccc3c2N1` (stereo not drawn), the TGI in the experiment on CCRF-CEM leukemia is more than 100 µM; in the experiment on DU-145 prostate, 14.1 µM; in the experiment on UACC-62 melanoma, 15.3 µM; in the experiment on MDA-MB-231 breast, 11.2 µM; with HL-60(TB) leukemia it was 23.3 µM; in the experiment with NCI-H460 lung, 14.6 µM. In addition, the TGI was 11.3 µM in the experiment on MDA-MB-435, more than 27 µM in the experiment with RPMI-8226 leukemia and 9.09 µM in the experiment on NCI/ADR-RES ovarian.
For the molecule `CC(C)NC(=O)CN1CCN(C2=CC(=O)c3c(O)ccc(O)c3C2=O)CC1`, the TGI is more than 95.2 µM with CCRF-CEM leukemia; 29.7 µM in the experiment with DU-145 prostate; 13.3 µM with UACC-62 melanoma; more than 63.5 µM with MDA-MB-231 breast; 5.99 µM in the experiment on HL-60(TB) leukemia; 29.1 µM in the experiment with NCI-H460 lung. In addition, the TGI with MDA-MB-435 was 3.76 µM; in the experiment on RPMI-8226 leukemia it was more than 100 µM; in the experiment with NCI/ADR-RES ovarian, 25.5 µM.
`O=P(Oc1ccccc1)(Oc1ccccc1)Oc1c[nH]c2ccccc12`: the TGI with CCRF-CEM leukemia was 1.5 µM; with DU-145 prostate, more than 100 µM; in the experiment on UACC-62 melanoma, 22 µM; in the experiment with MDA-MB-231 breast it was 31.3 µM; with HL-60(TB) leukemia, 44.1 µM; with NCI-H460 lung, 26.7 µM. The TGI turned out to be 28.3 µM with MDA-MB-435, 1.54 µM in the experiment on RPMI-8226 leukemia and 18 µM in the experiment on NCI/ADR-RES ovarian.
